The target of assay [1] is Acetylcholinesterase (Homo sapiens, UniProt P22303).
Description: Inhibition of human AChE incubated with compounf for 5 mins before addition of substrate acetylthiocholine iodide by Ellman's method
In assay [2] the target is Butyrylcholinesterase (Equus caballus, UniProt Q9N1N9).
Description: Inhibition of equine BChE incubated with compounf for 5 mins before addition of substrate S-butyrylthiocholine iodide by Ellman's method

Data on 33 molecules can be found in ChEMBL document CHEMBL1764969, “Design, synthesis and structure-activity relationship (SAR) studies of 2,4-disubstituted pyrimidine derivatives: dual activity as cholinesterase and Aβ-aggregation inhibitors” (Bioorg Med Chem, 2011).

What is called pIC50 is the IC50 on a negative log10 scale, so that one unit is a factor of ten. Read a high pIC50 as a small IC50.

pIC50: −log10 of the molar value. A value given as a limit tells only on which side of the number the result lay.

Chain of Acetylcholinesterase (P22303 whole entry): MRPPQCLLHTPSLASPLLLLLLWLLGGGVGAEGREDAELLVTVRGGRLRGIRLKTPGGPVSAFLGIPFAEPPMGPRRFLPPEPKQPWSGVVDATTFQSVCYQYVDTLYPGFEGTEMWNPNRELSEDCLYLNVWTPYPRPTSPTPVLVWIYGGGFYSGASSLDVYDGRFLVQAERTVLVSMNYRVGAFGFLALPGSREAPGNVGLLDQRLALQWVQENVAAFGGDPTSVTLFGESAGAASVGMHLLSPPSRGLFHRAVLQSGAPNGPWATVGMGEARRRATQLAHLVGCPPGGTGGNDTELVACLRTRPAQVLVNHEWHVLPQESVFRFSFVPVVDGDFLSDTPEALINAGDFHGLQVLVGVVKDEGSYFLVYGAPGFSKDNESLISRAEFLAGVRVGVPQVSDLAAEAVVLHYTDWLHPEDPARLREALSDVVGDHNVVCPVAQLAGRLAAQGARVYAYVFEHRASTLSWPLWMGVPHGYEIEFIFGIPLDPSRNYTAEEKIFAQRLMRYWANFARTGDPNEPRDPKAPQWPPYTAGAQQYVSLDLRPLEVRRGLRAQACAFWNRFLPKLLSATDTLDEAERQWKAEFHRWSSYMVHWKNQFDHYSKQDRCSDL
Chain of Butyrylcholinesterase (Q9N1N9 whole entry): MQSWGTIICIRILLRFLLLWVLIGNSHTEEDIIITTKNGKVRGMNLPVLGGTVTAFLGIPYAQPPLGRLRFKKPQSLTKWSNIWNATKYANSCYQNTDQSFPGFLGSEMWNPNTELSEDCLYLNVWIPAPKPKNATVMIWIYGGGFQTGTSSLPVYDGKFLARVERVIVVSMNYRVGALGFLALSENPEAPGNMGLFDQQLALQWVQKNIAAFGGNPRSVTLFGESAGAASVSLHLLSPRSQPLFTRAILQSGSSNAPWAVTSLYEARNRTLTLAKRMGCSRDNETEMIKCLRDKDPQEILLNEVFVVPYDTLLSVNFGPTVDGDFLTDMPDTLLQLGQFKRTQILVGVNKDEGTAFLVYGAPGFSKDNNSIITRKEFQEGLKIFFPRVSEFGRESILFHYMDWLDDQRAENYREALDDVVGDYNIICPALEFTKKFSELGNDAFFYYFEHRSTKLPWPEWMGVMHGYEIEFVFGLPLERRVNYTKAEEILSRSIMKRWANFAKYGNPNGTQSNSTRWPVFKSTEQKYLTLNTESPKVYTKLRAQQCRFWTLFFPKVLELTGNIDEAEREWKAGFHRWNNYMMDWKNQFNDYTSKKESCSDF

Regarding `c1ccc(CNc2ccnc(N3CCN(C4CCCCC4)CC3)n2)cc1`, the pIC50 in assay [1] is 4.64; in assay [2], 5.12. Turning to `c1ccc2c(CNc3ccnc(N4CCCC4)n3)cccc2c1`, the pIC50 in assay [1] was 5.26; in assay [2], 5.05. For `c1ccc(CNc2ccnc(N3CCOCC3)n2)cc1`, in assay [1], the pIC50 is 4.85. Take `CC(C)N1CCN(c2nccc(NCc3ccccc3)n2)CC1`: the pIC50 was 4.60 in assay [1] and 5.47 in assay [2]. For `CC(=O)N1CCN(c2nccc(NCc3ccccc3)n2)CC1` the same measures were 4.78 and below 4.00. The corresponding values for `CC1CCN(c2nccc(NCc3ccccc3)n2)CC1` are 4.74 and 5.47. Consider `O=S1(=O)CCN(c2nccc(NCc3ccccc3)n2)CC1`, for which the pIC50 in assay [1] is 4.62; in assay [2] it was below 4.00.

Take `c1ccc2c(CNc3ccnc(N4CCSCC4)n3)cccc2c1`: in assay [1], the pIC50 was 4.89. With `Fc1ccc(CN2CCN(c3nccc(NCc4ccccc4)n3)CC2)cc1`, the pIC50 in assay [1] was 4.67; in assay [2], 5.14. For `c1ccc(CNc2ccnc(NC3CCN(Cc4ccccc4)CC3)n2)cc1` the same measures were 4.91 and 5.09. The corresponding values for `CC(C)(C)OC(=O)N1CCN(c2nccc(NCc3ccccc3)n2)CC1` are 4.73 and below 4.00. For the molecule `CN1CCN(c2nccc(NCc3cccc4ccccc34)n2)CC1`, the results for the pIC50 in assay [1] and in assay [2] were 4.76 and 5.59, respectively. Molecule `c1ccc(CCNc2ccnc(N3CCCC3)n2)cc1` had a pIC50 in assay [1] of 5.01. As for `CC1CCN(c2nccc(NCc3cccc4ccccc34)n2)CC1`, the figures for the pIC50 in assay [1] and in assay [2] were 4.59 and 5.66, respectively. For `CCCN1CCN(c2nccc(NCc3ccccc3)n2)CC1` the same measures were 4.82 and 4.22.

As to `Brc1ccc(CN2CCN(c3nccc(NCc4ccccc4)n3)CC2)cc1`, the values for the pIC50 in assay [1] and in assay [2] were 4.59 and 4.84, respectively. The corresponding values for `c1ccc(CNc2ccnc(N3CCNCC3)n2)cc1` are 4.81 and below 4.00. For the molecule `CN1CCN(c2nccc(NCCc3ccccc3)n2)CC1`, the pIC50 was 4.69 in assay [1] and below 4.00 in assay [2]. On to `c1ccc(CNc2ccnc(N3CCCC3)n2)cc1`, for which the figures for the pIC50 in assay [1] and in assay [2] were 5.06 and 4.58, respectively. The corresponding values for `OCCN1CCN(c2nccc(NCc3ccccc3)n2)CC1` are 4.58 and below 4.00. For `COCCN1CCN(c2nccc(NCc3ccccc3)n2)CC1` the same measures were 4.57 and below 4.00. For `[O-][S+]1CCN(c2nccc(NCc3ccccc3)n2)CC1` the same measures were 4.90 and below 4.00.

On to `c1ccc(CCNc2ccnc(N3CCSCC3)n2)cc1`, for which the pIC50 was 4.58 in assay [1] and below 4.00 in assay [2]. Regarding `c1ccc(CNc2ccnc(N3CCSCC3)n2)cc1`, the pIC50 is 4.63 in assay [1] and 5.21 in assay [2]. As to `CN1CCN(c2nccc(NCc3ccccc3)n2)CC1`, the pIC50 is 4.60 in assay [1] and below 4.00 in assay [2]. Consider `c1ccc2c(CNc3ccnc(N4CCOCC4)n3)cccc2c1`, for which the values for the negative logarithm of the IC50 (pIC50) in assay [1] and in assay [2] were 4.83 and 4.55, respectively.

Regarding `c1ccc(CCNc2ccnc(N3CCOCC3)n2)cc1`, the pIC50 in assay [1] is 4.71; in assay [2], below 4.00. For `Clc1ccc(CN2CCN(c3nccc(NCc4ccccc4)n3)CC2)cc1` the same measures were 4.69 and 4.97. For `FC(F)(F)c1ccc(CN2CCN(c3nccc(NCc4ccccc4)n3)CC2)cc1` the same measures were 4.54 and below 4.00. Regarding `c1ccc2c(NCCCCCCCNc3c4c(nc5ccccc35)CCCC4)c3c(nc2c1)CCCC3`, the pIC50 in assay [2] was 8.00. Turning to `CC(C)C1CCN(c2nccc(NCc3ccccc3)n2)CC1`, the figures for the pIC50 in assay [1] and in assay [2] were 4.85 and 5.19, respectively. Turning to `CC1CCN(c2nccc(NCCc3ccccc3)n2)CC1`, the pIC50 in assay [1] was 5.06; in assay [2], 4.75. The corresponding values for `CC(=O)N1CCN(c2nccc(NCCc3ccccc3)n2)CC1` are 4.70 and below 4.00.
